{
  "source": "patent US20140017187A1",
  "about": "“Use of 5-(7-methoxy-3,3-dimethyl-2,3-dihydro-1-benzoxepin-5-yl)-3-methyl-penta-2,4-dienoic acid as a cosmetic” (Merck Patent GmbH, priority 2008, published 2014)",
  "origin": "cited, not measured here",
  "target": "T1, PPAR-alpha (Homo sapiens, UniProt Q07869)",
  "T1 sequence (Q07869 1-468)": "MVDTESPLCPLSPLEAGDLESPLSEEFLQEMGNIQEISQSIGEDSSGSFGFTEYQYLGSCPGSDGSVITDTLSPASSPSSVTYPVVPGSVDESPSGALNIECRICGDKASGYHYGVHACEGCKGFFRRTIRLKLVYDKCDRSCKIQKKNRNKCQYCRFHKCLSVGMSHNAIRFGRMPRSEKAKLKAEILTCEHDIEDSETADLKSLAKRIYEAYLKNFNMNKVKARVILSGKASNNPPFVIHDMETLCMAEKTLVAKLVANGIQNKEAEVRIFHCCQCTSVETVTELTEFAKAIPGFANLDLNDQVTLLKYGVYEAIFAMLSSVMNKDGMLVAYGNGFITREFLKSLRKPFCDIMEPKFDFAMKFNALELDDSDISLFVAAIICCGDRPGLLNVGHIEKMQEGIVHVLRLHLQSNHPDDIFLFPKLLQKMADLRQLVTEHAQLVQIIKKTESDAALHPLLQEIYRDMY",
  "conditions": "personal communication Johann Wiechers; cited from earlier work",
  "data": [
    {"substance": "Octadecenedioic acid [O.D.A. White]", "values": [
      {"measurement": "PPAR-alpha activation", "result": "negligible"}
    ]}
  ]
}
